Assay results: patent US20110293746A1, “Modulation of Gsk-3Beta and Method of Treating Proliferative Disorders” (Agency For Science, Technology and Research, priority 2004, published 2011)
Entries after “also recorded” stand apart in the source; their conditions may differ.

Experiments:
p53 in HCT116 cells = assay: p53 accumulation in cytosol and mitochondria (subcellular fractionation, Western blot); format: cell-based, Human; settings: after drug treatment
Method: (§1) Western blotting, immunoprecipitation and microarray analysis: Cells were scraped, collected and lysed as described previously (Yu, Q., et al. Cancer Res, 62: 5743-5748, 2002). Briefly, cells were lysed with cell lysis buffer (0.3% NP40, 1 mM EDTA, 50 mM Tris-HCl (pH 7.4), 2 mM EGTA, 1% Triton X-100, […], 25 mM NaF, 1 mM Na3VO4, 2 mM AEBSF, 5 μg/ml aprotinin, 1 μg/ml leupeptin) for 30 minutes on ice, and the lysates were clarified by centrifugation at 12,000×g for 15 minutes at 4° C. Protein concentration was quantified (Bio-Rad, Hercules, Calif.) and protein samples (50 μg) were separated by SDS/PAGE and transferred onto Immobilon™ membranes (Millipore, Bedford, Mass.). Antibodies against the following proteins were used: p53 (DO-1), p21, PARP, GSK-α/β, α-Tubulin, and β-actin (Santa Cruz Biotechnology), Puma (Ab-1, Oncogene), Bax (Sigma), phosphor-(Ser9/21)-GSK-3α/β and Caspase-9 (Cell Signaling Technologies), phosphor-(Tyr216/279)-GSK-3α/β (Upstate Biotechnologies), cytochrome c (BD PharMingen). To detect Bax conformational change, cells were lysed in 1% Chaps buffer and the soluble fraction was immunoprecipitated with anti-Bax monoclonal antibody (6A7, BD, PharMingen), followed by immunoblotting with anti-Bax polyclonal antibody. Microarray analysis was performed as described (Kho, P. S., et al. J Biol Chem, 279: 21183-21192, 2004).
(§2) Subcellular fractionation: Cells were lysed in mitochondria lysis buffer (210 mM Mannitol, 70 mM Sucrose, 10 mM Hepes (pH, 7.4), 1 mM EDTA, protease inhibitor cocktail) with a Dounce homogenizer and subjected to centrifugation at 1000×g to pellet the nuclei. Post-nuclear supernatant was centrifuged at 10,000×g to pellet the mitochondria-enriched heavy membrane fraction, and the resulting supernatant was further centrifuged to obtain cytosolic fraction. Total proteins (30 μg) from cytosolic or mitochondrial fractions were subjected to immunoblot analysis.

HCT116 cells = assay: FACS analysis of DNA content (sub-G1 apoptotic fraction); format: cell-based, Human; settings: for effect on ADR-treated cells (apoptosis): concentrations up to 20 μM, with ADR
Method: Cell culture and drug treatments: Human colon cancer cell line HCT116 and its derived isogenic p53^−/−, Puma^−/−, Bax^−/− and p53-inducible DLD cell lines were kindly provided by Dr. Bert Vogelstein (Johns Hopkins University, MD). RKO and RKO/E6 cells were from ATCC. Cells were cultured in DMEM containing 10% FBS. All culture reagents and media were from Invitrogen. 5-Fluorouracil, Adriamycin, etoposide and lithium chloride were purchased from Sigma. GSK-3β specific small molecule inhibitor LY2119301 was a gift from Eli Lilly (Indianapolis) and SB-216763, SB-415283 were obtained from BIOMOL.
FACS analysis of DNA content and caspase-3 activity: Cells were harvested and fixed in 70% ethanol. Fixed cells were stained with propidium iodide (50 μg/ml) after treatment with RNase (100 μg/ml). The stained cells were analyzed for DNA content by fluorescence-activated cell sorting (FACS) in a FACScalibur™ (Becton Dickinson Instrument, San Jose, Calif.). Cell cycle fractions were quantified using the CellQues™ software (Becton Dickinson). To measure caspase-3 activity, cells were fixed with Cytofix/Cytoperm™ solution (BD PharMingen) as instructed, and then stained with FITC-conjugated rabbit anti-active caspase-3 monoclonal antibody (BD PharMingen). Quantification of cells positive for the caspase-3 detection was performed by flow cytometry.

GSK-3β = biological target: T1, GSK-3β (Homo sapiens, UniProt P49841); assay: Immunoblot analysis of GSK-3 phosphorylation status in HCT116 cells; format: cell-based
T1 construct: endogenous in cells; host or cells: HCT116
Method: (§3) Protein concentration was quantified (Bio-Rad, Hercules, Calif.) and protein samples (50 μg) were separated by SDS/PAGE and transferred onto Immobilon™ membranes (Millipore, Bedford, Mass.). […] To detect Bax conformational change, cells were lysed in 1% Chaps buffer and the soluble fraction was immunoprecipitated with anti-Bax monoclonal antibody (6A7, BD, PharMingen), followed by immunoblotting with anti-Bax polyclonal antibody.
as §2

[1] = tested on: p53 and p53 targets in HCT116 cells; assay: Immunoblot analyses of p53 and p53 targets; format: cell-based, Human; settings: for cleavage of PARP: cells treated with genotoxic agents; for p53-mediated p21 induction / p53 accumulation / stability in response to DNA damage: with ADR, etoposide or 5-FU, HCT116 (LY2119301 also RKO)
Method: as §1

GSK-3α = biological target: T2, GSK-3α (Homo sapiens, UniProt P49840); assay: Immunoblot analysis of GSK-3 phosphorylation status in HCT116 cells; format: cell-based; settings: HCT116 whole lysate immunoblot
T2 construct: endogenous in cells; host or cells: HCT116
Method: as §3, §2

GSK-3α and GSK-3β = settings: in vitro, Coghlan et al. 2000; cited from earlier work

T1 sequence (P49841 whole entry): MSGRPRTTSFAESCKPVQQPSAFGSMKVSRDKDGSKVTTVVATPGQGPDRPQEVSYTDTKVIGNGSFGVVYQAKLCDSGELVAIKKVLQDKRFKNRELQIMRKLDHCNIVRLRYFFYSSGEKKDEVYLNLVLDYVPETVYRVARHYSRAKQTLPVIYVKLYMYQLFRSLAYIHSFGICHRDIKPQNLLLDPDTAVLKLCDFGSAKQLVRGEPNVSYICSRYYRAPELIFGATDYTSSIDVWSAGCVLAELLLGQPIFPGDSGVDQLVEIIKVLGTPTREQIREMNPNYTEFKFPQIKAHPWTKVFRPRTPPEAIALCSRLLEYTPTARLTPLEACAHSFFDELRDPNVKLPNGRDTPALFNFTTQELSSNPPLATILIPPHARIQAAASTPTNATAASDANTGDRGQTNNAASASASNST
T2 sequence (P49840 whole entry): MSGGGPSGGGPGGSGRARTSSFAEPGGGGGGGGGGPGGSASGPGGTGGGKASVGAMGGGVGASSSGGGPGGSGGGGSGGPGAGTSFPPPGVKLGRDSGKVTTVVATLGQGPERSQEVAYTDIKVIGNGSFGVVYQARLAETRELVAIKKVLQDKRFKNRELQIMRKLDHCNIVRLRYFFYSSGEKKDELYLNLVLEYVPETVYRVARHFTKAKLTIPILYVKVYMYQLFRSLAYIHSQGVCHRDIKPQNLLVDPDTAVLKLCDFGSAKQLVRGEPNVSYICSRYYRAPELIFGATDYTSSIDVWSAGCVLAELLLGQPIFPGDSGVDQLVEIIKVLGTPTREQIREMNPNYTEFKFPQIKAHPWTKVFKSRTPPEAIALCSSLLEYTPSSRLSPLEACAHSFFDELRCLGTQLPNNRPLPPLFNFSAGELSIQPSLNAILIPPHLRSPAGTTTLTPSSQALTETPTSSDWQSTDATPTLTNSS

## O=c1[nH]cc(F)c(=O)[nH]1 [5-FU, 5-fluorouracil]
p53 in HCT116 cells
  time of p53 accumulation in the cytosol (not seen until): 6 h
  time of p53 accumulation in the mitochondria (as early as): 2 h

## COc1cc([C@@H]2c3cc4c(cc3[C@@H](O[C@@H]3O[C@@H]5CO[C@@H](C)O[C@H]5[C@H](O)[C@H]3O)[C@H]3COC(=O)[C@H]23)OCO4)cc(OC)c1O [etoposide]
HCT116 cells; etoposide without GSK-3β inhibitor
  apoptosis by etoposide alone despite mitochondrial p53 accumulation: failed to induce apoptosis
GSK-3β; after etoposide treatment alone
  levels and phosphorylation states of cytosolic and nuclear GSK-3α and GSK-3β: no changes
p53 in HCT116 cells
  time of p53 accumulation in the cytosol (not seen until): 6 h
  time of p53 accumulation in the mitochondria (as early as): 2 h

## O=C1NC(=O)C(c2ccccc2[N+](=O)[O-])=C1Nc1ccc(O)c(Cl)c1 [SB-415286]
HCT116 cells
  effect on ADR-treated cells (apoptosis): no effect
[1]
  cleavage of PARP: did not induce
  p53-mediated p21 induction: no affect; also recorded: no effect
  p53 accumulation / stability in response to DNA damage: no affect; also recorded: no effect

## Cn1cc(C2=C(c3ccc(Cl)cc3Cl)C(=O)NC2=O)c2ccccc21 [SB-216763]
HCT116 cells
  effect on ADR-treated cells (apoptosis): no effect
GSK-3α
  activating tyrosine phosphorylation on GSK-3α: reduced
  inhibitory serine 21 phosphorylation on GSK-3α: induced
GSK-3β; HCT116 whole lysate immunoblot
  inhibitory serine 9 phosphorylation on GSK-3β: slightly reduced
GSK-3β; nuclear and cytoplasmic fractions
  tyrosine phosphorylation of GSK-3β: did not block
[1]
  cleavage of PARP: did not induce
  p53-mediated p21 induction: no affect
  p53 accumulation / stability in response to DNA damage: no affect
[1]; listed as SB-126763
  p53-mediated p21 induction: no effect
  p53 accumulation / stability in response to DNA damage: no effect
GSK-3α and GSK-3β
  inhibition of GSK-3α versus GSK-3β: equally effective
